The target in series [1] is T1, P2Y purinoceptor 14 (Homo sapiens) (UniProt Q15391).
T1 sequence (whole entry): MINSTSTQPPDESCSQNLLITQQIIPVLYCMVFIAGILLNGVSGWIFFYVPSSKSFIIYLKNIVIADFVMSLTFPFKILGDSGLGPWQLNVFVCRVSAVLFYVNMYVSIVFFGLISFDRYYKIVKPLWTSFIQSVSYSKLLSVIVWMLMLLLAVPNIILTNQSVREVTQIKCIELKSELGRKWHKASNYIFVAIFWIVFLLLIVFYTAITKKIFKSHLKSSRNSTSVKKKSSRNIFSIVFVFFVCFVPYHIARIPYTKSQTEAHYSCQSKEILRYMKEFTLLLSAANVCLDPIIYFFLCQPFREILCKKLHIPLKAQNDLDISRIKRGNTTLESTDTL
The series is described as follows: Antagonist activity at human P2Y14R expressed in HEK293 cells assessed as inhibition of UDPG-induced Ca2+ level at 5 uM by Fluo-4 dye based fluorescence assay relative to control. It is filed as functional, cell-based.

The target in the next series is T2, P2Y purinoceptor 14 (Homo sapiens, UniProt Q15391).
T2 sequence (Q15391 whole entry): T1 sequence (whole entry)
Description: Antagonist activity at human P2Y14R expressed in HEK293 cells assessed as inhibition of UDPG-induced Ca2+ level by Fluo-4 dye based fluorescence assay. The format is functional, cell-based.

Series [2] concerns Mus musculus. Description: Antiinflammatory activity in LPS-induced C57BL/6 mouse ALI model assessed as reduction in IL-1beta expression in BALF at 2 mg/kg, po administered once daily via gavage for 7 days followed by endotoxin challenge at 1 hr post last dose and subsequent LPS stimulation and measured after 24 hrs by ELISA. The format is functional, organism-based. The conditions noted are these: time 8.0 day. A general note: An ELISA detects its analyte on a solid surface through an enzyme-linked reagent.

The test system of series [3] is Mus musculus. Description: Antiinflammatory activity in LPS-induced C57BL/6 mouse ALI model assessed as reduction in alveolar wall thickening at 2 mg/kg, po administered once daily via gavage for 7 days followed by endotoxin challenge at 1 hr post last dose and subsequent LPS stimulation and measured after 24 hrs by H and E staining based histopathological assay. It is filed as functional, organism-based. Particulars: time 8.0 day.

Series [4] concerns Mus musculus. The series is described as follows: Antiinflammatory activity in LPS-induced C57BL/6 mouse ALI model assessed as reduction in TNF-alpha expression in BALF at 2 mg/kg, po administered once daily via gavage for 7 days followed by endotoxin challenge at 1 hr post last dose and subsequent LPS stimulation and measured after 24 hrs by ELISA. It is filed as functional, organism-based. Particulars: time 8.0 day.

For series [5], the system named is Mus musculus. Description: Antiinflammatory activity in LPS-induced C57BL/6 mouse ALI model assessed as reduction in IL-6 expression in BALF at 2 mg/kg, po administered once daily via gavage for 7 days followed by endotoxin challenge at 1 hr post last dose and subsequent LPS stimulation and measured after 24 hrs by ELISA. It is filed as functional, organism-based. The conditions noted are these: time 8.0 day.

Series [6] has as its system Mus musculus. The series is described as follows: Antiinflammatory activity in LPS-induced C57BL/6 mouse ALI model assessed as reduction in neutrophil infiltration at 2 mg/kg, po administered once daily via gavage for 7 days followed by endotoxin challenge at 1 hr post last dose and subsequent LPS stimulation and measured after 24 hrs by H and E staining based histopathological assay. The format is functional, organism-based. Particulars: time 8.0 day.

Series [7] has as its system Mus musculus. The series is described as follows: Antiinflammatory activity in LPS-induced C57BL/6 mouse ALI model assessed as reduction in MPO level in BALF at 2 mg/kg, po administered once daily via gavage for 7 days followed by endotoxin challenge at 1 hr post last dose and subsequent LPS stimulation and measured after 24 hrs by ELISA. The format is functional, organism-based. The conditions noted are these: time 8.0 day.

Series [8] in a line: Aqueous solubility of the compound in pH 7.4 PBS buffer measured after 24 hrs by shake flask method. It is filed as physicochemical.
A short description of series [9]: Aqueous solubility of the compound in pH 4 PBS buffer measured after 24 hrs by shake flask method. The format is physicochemical.

Activity calls are given as the source filed them. The calls are words filed in the database; no cut-off is given here.

The term inhibition denotes the drop in the measured response relative to a control, in per cent. Take `O=C(O)c1cc(NS(=O)(=O)c2cccc(F)c2)cc(-c2ccc(C3CCNCC3)cc2)c1`: in series [1] (filed as antagonist), the inhibition stood at 76.2%.
`O=C(O)c1cc(NS(=O)(=O)c2ccc(-c3ccc(Br)cc3)cc2)cc(-c2ccc(C3CCNCC3)cc2)c1`: in series [1] (filed as antagonist), the inhibition was found to be 68.9%.
As to `O=C(O)c1cc(NS(=O)(=O)c2ccc(Br)cc2)cc(-c2ccc(C3CCNCC3)cc2)c1`, the inhibition in series [1] (filed as antagonist) turned out to be 81%.
Regarding `O=C(O)c1cc(NS(=O)(=O)Cc2ccccc2)cc(-c2ccc(C3CCNCC3)cc2)c1`, the inhibition in series [1] (filed as antagonist) was 81.6%.
On the same count and under the same terms, next, `COc1ccc(S(=O)(=O)Nc2cc(C(=O)O)cc(-c3ccc(C4CCNCC4)cc3)c2)cc1`: 70.8%; `O=C(O)c1cc(NS(=O)(=O)Cc2ccccc2F)cc(-c2ccc(C3CCNCC3)cc2)c1`: 80.6%.
As usually defined, the IC50 is the midpoint of a concentration-inhibition curve. Take `O=C(O)c1cc(NS(=O)(=O)CCc2ccc(F)cc2)cc(-c2ccc(C3CCNCC3)cc2)c1`: the concentration for half-maximal inhibition (IC50) on P2Y purinoceptor 14 came to 42.6 nM. In addition, the inhibition in series [1] (filed as antagonist) is 85.4%.
Taken in the same sequence, the figures for `O=C(O)c1cc(NS(=O)(=O)CCc2ccc(Br)cc2)cc(-c2ccc(C3CCNCC3)cc2)c1` were 19.6 nM and 96.7%.
Consider `O=C(O)c1cc(NS(=O)(=O)CCc2ccc(Cl)cc2)cc(-c2ccc(C3CCNCC3)cc2)c1`, for which, at P2Y purinoceptor 14, the IC50 is 28.6 nM. For the same molecule, the inhibition in series [1] (filed as antagonist) is 92.6%.
In the same order, the values of `O=C(O)c1cc(NS(=O)(=O)c2ccc(C(F)(F)F)cc2)cc(-c2ccc(C3CCNCC3)cc2)c1` are 23.2 nM and 90.8%.
Turning to `O=C(O)c1cc(NS(=O)(=O)c2ccc(-c3ccc(Cl)cc3)cc2)cc(-c2ccc(C3CCNCC3)cc2)c1`, in series [1] (filed as antagonist), the inhibition is 79.4%.
Consider `C[C@@H]1C[C@H]2[C@@H]3CCC4=CC(=O)C=C[C@]4(C)[C@@]3(F)[C@@H](O)C[C@]2(C)[C@@]1(O)C(=O)CO`, for which the outcome in the series with Mus musculus [2], in the series with Mus musculus [3], in the series on Mus musculus [4], in the series on Mus musculus [5], with Mus musculus [6] and with Mus musculus [7] was Active.
Regarding `O=C(O)c1cc(NS(=O)(=O)c2ccc(-c3ccccc3F)cc2)cc(-c2ccc(C3CCNCC3)cc2)c1`, the inhibition in series [1] (filed as antagonist) is 43.6%.
The same measure, in the same setting: the result for `Cc1ccc(S(=O)(=O)Nc2cc(C(=O)O)cc(-c3ccc(C4CCNCC4)cc3)c2)cc1` reads 50.6%; that for `O=C(O)c1cc(NS(=O)(=O)c2ccc(-c3ccc(C(F)(F)F)cc3)cc2)cc(-c2ccc(C3CCNCC3)cc2)c1`, 76.5%.
For `O=C(O)c1cc(NS(=O)(=O)Cc2ccc([N+](=O)[O-])cc2)cc(-c2ccc(C3CCNCC3)cc2)c1`, the 50% inhibitory concentration (IC50) on P2Y purinoceptor 14 amounted to 20.6 nM. The inhibition in series [1] (filed as antagonist) turned out to be 88.6%.
As to `O=C(O)c1cc(NS(=O)(=O)c2ccc(Cl)cc2)cc(-c2ccc(C3CCNCC3)cc2)c1`, the inhibition in series [1] (filed as antagonist) was found to be 80.9%.
On the same count and under the same terms, the result for `O=C(O)c1cc(NS(=O)(=O)CCc2ccccc2)cc(-c2ccc(C3CCNCC3)cc2)c1` reads 82.7%.
Same read-out and setting: next, `O=C(O)c1cc(NS(=O)(=O)c2ccccc2)cc(-c2ccc(C3CCNCC3)cc2)c1`: 81.5%.
With `COc1ccccc1S(=O)(=O)Nc1cc(C(=O)O)cc(-c2ccc(C3CCNCC3)cc2)c1`, in series [1], the inhibition is 14.3%.
For `COc1cccc(S(=O)(=O)Nc2cc(C(=O)O)cc(-c3ccc(C4CCNCC4)cc3)c2)c1`, the inhibition in [1] (filed as antagonist) stood at 47.8%.
As for `O=C(O)c1cc(NS(=O)(=O)CCc2ccccc2F)cc(-c2ccc(C3CCNCC3)cc2)c1`, the IC50 at P2Y purinoceptor 14 was found to be 38.2 nM. Besides, in [1] (filed as antagonist), the inhibition amounted to 86.4%.
In the case of `CC(C)(C)c1ccc(S(=O)(=O)Nc2cc(C(=O)O)cc(-c3ccc(C4CCNCC4)cc3)c2)cc1`, the inhibition in series [1] (filed as antagonist) came out at 49.6%.
The same measure, in the same setting: next, `O=C(O)c1cc(NS(=O)(=O)c2ccc(-c3ccccc3)cc2)cc(-c2ccc(C3CCNCC3)cc2)c1`: 60.5%.
Consider `O=C(O)c1cc(NS(=O)(=O)c2ccc(OC(F)(F)F)cc2)cc(-c2ccc(C3CCNCC3)cc2)c1`, for which the inhibition in [1] was determined as 32.1%.
Take `O=C(O)c1cc(NS(=O)(=O)Cc2ccc(Br)cc2)cc(-c2ccc(C3CCNCC3)cc2)c1`: in series [1] (filed as antagonist), the inhibition came to 83.1%.
The same measure, in the same setting: the result for `O=C(O)c1cc(NS(=O)(=O)c2ccc([N+](=O)[O-])cc2)cc(-c2ccc(C3CCNCC3)cc2)c1` reads 82.6%; that for `O=C(O)c1cc(NS(=O)(=O)c2ccccc2F)cc(-c2ccc(C3CCNCC3)cc2)c1`, 82.3%; that for `O=C(O)c1cc(NS(=O)(=O)c2ccc(-c3ccc([N+](=O)[O-])cc3)cc2)cc(-c2ccc(C3CCNCC3)cc2)c1`, 65.1%.
With `O=C(O)c1cc(NS(=O)(=O)c2ccc(F)cc2)cc(-c2ccc(C3CCNCC3)cc2)c1`, on P2Y purinoceptor 14, the half-inhibitory concentration (IC50) turned out to be 49.6 nM. Also, in series [1] (filed as antagonist), the inhibition stood at 85.2%.
Turning to `COc1ccc(S(=O)(=O)Nc2cc(C(=O)O)cc(-c3ccc(C4CCNCC4)cc3)c2)cc1OC`, the inhibition in series [1] is 23.5%.
Consider `CC(C)c1ccc(S(=O)(=O)Nc2cc(C(=O)O)cc(-c3ccc(C4CCNCC4)cc3)c2)cc1`, for which the inhibition in series [1] (filed as antagonist) worked out at 69.5%.
Still for that read-out and setting: the result for `O=C(O)c1cc(NS(=O)(=O)Cc2ccc(F)cc2)cc(-c2ccc(C3CCNCC3)cc2)c1` reads 82.8%.
On to `O=C(O)c1cc(NS(=O)(=O)Cc2ccc(C(F)(F)F)cc2)cc(-c2ccc(C3CCNCC3)cc2)c1`, for which the half-inhibitory concentration (IC50) at P2Y purinoceptor 14 was found to be 24.2 nM. Further, the inhibition in series [1] (filed as antagonist) worked out at 96.5%.
On to `O=C(O)c1cc(NS(=O)(=O)c2ccc(-c3ccc(F)cc3)cc2)cc(-c2ccc(C3CCNCC3)cc2)c1`, for which the inhibition in series [1] (filed as antagonist) turned out to be 59.7%.
Still for that read-out and setting: the result for `O=C(O)c1cc(NS(=O)(=O)Cc2ccc(Cl)cc2)cc(-c2ccc(C3CCNCC3)cc2)c1` reads 80.1%.
By thermodynamic solubility is commonly meant the concentration in solution at equilibrium with solid. For the molecule `O=C(O)c1cc(-c2ccc(C3CCNCC3)cc2)c2ccc(-c3ccc(C(F)(F)F)cc3)cc2c1` [PPTN], the thermodynamic solubility at 24 h in series [8] and in [9] was less than 10 µg/mL throughout.

The values above are taken from ChEMBL document CHEMBL6182883, “Discovery of a series of novel 3-sulfonamido benzoic acid derivatives as promising P2Y14R antagonists for acute lung injury” (Eur J Med Chem, 2025).
